{"source": "a melting point compilation (Tetko et al.)", "data": [{"units": {"melting point": "°C"}, "values": [{"smiles": "O=C1c2ccccc2C(=O)c2cc(Br)ccc21", "melting point": 206}, {"smiles": "NC(=O)N1C(=O)C=CC1=O", "melting point": 159}, {"smiles": "CC(=O)Oc1c(-c2ccc(-c3[nH]c4cc([N+](=O)[O-])ccc4c3OC(C)=O)cc2)[nH]c2cc([N+](=O)[O-])ccc12", "melting point": 280}, {"smiles": "O=Cc1cccc(C(F)(F)F)c1O", "melting point": 57}, {"smiles": "N#Cc1c(O)nsc1Nc1ccccc1Cl", "melting point": 100}, {"smiles": "C(=NN=Cc1ccccc1)c1ccccc1", "melting point": 93}, {"smiles": "CCOC=C(C#N)S(=O)(=O)c1ccc(Cl)cc1", "melting point": "121 to 124"}, {"smiles": "C=CCC1(C2C=CCCC2)C(=O)NC(=S)NC1=O", "note": "(centres undefined)", "melting point": 148}, {"smiles": "O=[N+]([O-])c1ccc(I)c(Cl)c1", "melting point": 99}, {"smiles": "C[C@H](C(=O)O)c1ccccc1", "melting point": "29 to 32"}, {"smiles": "O=C(c1ccccn1)c1ccccn1", "melting point": "53 to 55"}, {"smiles": "CCCCCCCCC=CCCCCCCCC(=O)OC", "melting point": 9.5}, {"smiles": "CC1CCC(O)CC1=CC=C1CCCC2(C)C1CCC2C(C)C=CC(C)C(C)C", "note": "(centres undefined)", "melting point": 126}, {"smiles": "CCCC(O)CCC=CC=CC#CC#CC=CCO", "note": "(centres undefined)", "melting point": 87}, {"smiles": "COc1cc(OC)c(OC)cc1/C=C/C(=O)O", "melting point": "164 to 167"}, {"smiles": "CC(=O)c1nn(-c2ccc(F)cc2)c(=N)s1", "melting point": 198}, {"smiles": "Cc1ccc(C#N)c(C#N)c1", "melting point": "118 to 121"}, {"smiles": "CC(C)n1c2c(c(=O)[nH]c1=O)CCCC2", "melting point": "229 to 230"}, {"smiles": "N#Cc1ccc(CN2CCOCC2)cc1", "melting point": "86 to 87"}, {"smiles": "CC(=O)c1ccc(NC(=O)C(C(F)(F)F)(C(F)(F)F)C(F)(F)F)cc1", "melting point": "223 to 225"}, {"smiles": "O=S1(=O)Cc2cccc3cccc(c23)C1", "melting point": "238 to 240"}, {"smiles": "COCC(=O)N(c1c(C)cccc1C)C(C)C(=O)OC", "note": "(centres undefined)", "melting point": 71}, {"smiles": "CC(=O)c1c(C)c(C(=O)O)n(C)c1C", "melting point": "135 to 137"}, {"smiles": "CCOC(=O)C1=Nc2cc3c(cc2=C1OC(C)=O)C(OC(C)=O)=C(C(=O)OCC)N=3", "melting point": 178}, {"smiles": "CC(=O)Oc1ccc(C)c(C)c1", "melting point": 22}, {"smiles": "O=Cc1c[nH]c2ccc(Cl)cc12", "melting point": 211}, {"smiles": "FC(F)C(F)(F)CBr", "melting point": "< 25"}, {"smiles": "ClCc1cc(-c2ccccc2)on1", "melting point": "48 to 49"}, {"smiles": "O=C(O)C(Cl)CCl", "note": "(centres undefined)", "melting point": 50}, {"smiles": "Brc1ccc(OCc2ccccc2)cc1", "melting point": 62}, {"smiles": "COc1ccc(C(C)=O)cc1F", "melting point": 92}, {"smiles": "CNC(=O)Oc1cc(C)cc(C(C)C)c1", "melting point": 87}, {"smiles": "Cc1ncc(CO)c(N)n1", "melting point": 198}, {"smiles": "CC(C)(C)OC(=O)NC(CC(N)=O)C(=O)O", "note": "(centres undefined)", "melting point": "179 to 182"}, {"smiles": "Clc1ccc(CSc2ccc(Cl)cc2)cc1", "melting point": 75}, {"smiles": "CCOC(=O)C1=C(C)NC(=O)NC1c1ccc(Cl)cc1", "note": "(centres undefined)", "melting point": 185}, {"smiles": "Cc1ccc(Nc2ccc(C)cc2)cc1", "melting point": 79.8}, {"smiles": "Clc1ncnc2scc(-c3cccs3)c12", "melting point": "110 to 112"}, {"smiles": "CC(C)(C)NCC(O)COc1ccccc1C#N", "note": "(centres undefined)", "melting point": 164}, {"smiles": "CCOC(=O)c1c(NC(=S)Nc2ccc(Br)cc2)sc2c1CCCC2", "melting point": "204 to 205"}, {"smiles": "FC(F)(F)CBr", "melting point": -93.9}, {"smiles": "COc1ccc(-c2nn(-c3ccccc3)cc2CNc2ccc(F)c(Cl)c2)cc1", "melting point": 117}, {"smiles": "CCN(CCO)CCCC(C)Nc1ccnc2cc(Cl)ccc12", "note": "(centres undefined)", "melting point": 90}, {"smiles": "O=[N+]([O-])c1ccc(Oc2c(Cl)cccc2Cl)c(Cl)c1", "melting point": "136 to 138"}, {"smiles": "O=Cc1ccc2c(c1)OCCO2", "melting point": "52 to 53"}, {"smiles": "COC(=O)c1c(C)c2c(c(C(=O)OC)c1C)CC2=O", "melting point": 117}, {"smiles": "Oc1cc(OCc2ccccc2)ccn1", "melting point": 196}, {"smiles": "CC(=O)c1cc(Cl)ccc1O", "melting point": "53 to 56"}, {"smiles": "O=S(=O)(Cl)c1ccc(C(F)(F)F)cc1Cl", "melting point": 37}, {"smiles": "Cc1ccc([N+](=O)[O-])c(Cl)c1", "melting point": 24}, {"smiles": "NC(Cc1ccccc1)=NO", "melting point": "66 to 67"}, {"smiles": "NN(c1ccccc1)c1ccccc1", "melting point": 50.5}, {"smiles": "CCCCCCCCCCc1ccc(C(C)=O)cc1", "melting point": "33 to 35"}, {"smiles": "C=C(Br)c1ccccc1", "melting point": -44}, {"smiles": "CCC(C)NC(=O)C(C(F)(F)F)C(F)(F)F", "note": "(centres undefined)", "melting point": "110 to 113"}, {"smiles": "O=[N+]([O-])c1ccc(NN=C(Cc2ccccc2)C(O)Cc2ccccc2)cc1", "note": "(centres undefined)", "melting point": 122}, {"smiles": "Cc1cc(O)c(C(=O)O)c(O)c1", "melting point": 176}, {"smiles": "O=C1CC(=O)CC(c2ccc(F)cc2)C1", "melting point": "174 to 178"}, {"smiles": "O=C(C[N+](=O)[O-])c1ccccc1", "melting point": "101 to 106"}, {"smiles": "C#CCOc1cc(-n2nc(C(C)(C)C)oc2=O)c(Cl)cc1Cl", "melting point": 131}, {"smiles": "CCOC(=O)CNc1nc(N)n[nH]1", "melting point": "177 to 179"}, {"smiles": "Cc1nc(C(F)(F)F)c(C(=O)O)cc1-c1nc(-c2ccccc2)cs1", "melting point": "188 to 190"}, {"smiles": "Cc1ccc(C(=O)C2=NOC3C(=O)N(c4ccc(O)cc4)C(=O)C23)cc1", "note": "(centres undefined)", "melting point": 120}, {"smiles": "CC1(C)C(N)=[N+]([O-])C(c2ccccc2)N1O", "note": "(centres undefined)", "melting point": "208 to 210"}, {"smiles": "CCN1CCN(C(=O)N[C@@H](C(=O)O)c2ccccc2)C(=O)C1=O", "melting point": 171}, {"smiles": "C=C(C)C(=O)OCC", "melting point": -60}, {"smiles": "ClCc1noc(-c2cccs2)n1", "melting point": "67 to 68"}, {"smiles": "O=C(O)c1cccc(CSc2cccs2)c1", "melting point": "108 to 110"}, {"smiles": "O=C(O)c1cccc(Cl)c1F", "melting point": 177}, {"smiles": "N#C/C(=N/Nc1ccccc1[N+](=O)[O-])c1nc(-c2ccccc2)cs1", "melting point": 210}, {"smiles": "Nc1c(C=O)cnn1-c1ccc(Cl)cc1", "melting point": 80}, {"smiles": "CCCCCCCCCCC(C)CC", "note": "(centres undefined)", "melting point": -38}, {"smiles": "Cc1cccc2c(=O)c(=O)c12", "melting point": 121}, {"smiles": "O=[N+]([O-])OC(CO)CO", "melting point": 54}, {"smiles": "Nc1cc(C(F)(F)F)ccc1Cl", "melting point": 10}, {"smiles": "CC(C)(C)NCC(O)COc1nsnc1N1CCOCC1", "note": "(centres undefined)", "melting point": 202}, {"smiles": "Brc1ccc2sccc2c1", "melting point": "47 to 48"}, {"smiles": "OCc1cccc2nonc12", "melting point": 72}, {"smiles": "O=C(O)CC1NC(=O)NC1=O", "note": "(centres undefined)", "melting point": "213 to 216"}, {"smiles": "O=C(O)c1cc(F)c(Cl)cc1Cl", "melting point": "141 to 144"}, {"smiles": "CCOC(=O)C(Cc1ccccc1)(Cc1ccccc1)C(C)=O", "melting point": 58}, {"smiles": "CC(=O)OCC(=O)C1(O)CCC2C3CCC4=CC(=O)CCC4(C)C3C(=O)CC21C", "note": "(centres undefined)", "melting point": 222}, {"smiles": "OCCNC1CCCCC1", "melting point": 36}, {"smiles": "O=c1c2ccccc2[nH]c(=S)n1-c1ccccc1", "melting point": "309 to 311"}, {"smiles": "CCOC(CNC1=CC(=O)C=CC1=O)OCC", "melting point": 70}, {"smiles": "O=C(c1ccc2ccccc2c1)c1noc(-c2ccc3ccccc3c2)c1S(=O)(=O)c1ccccc1", "melting point": 120}, {"smiles": "Nc1ncncn1", "melting point": "219 to 224"}, {"smiles": "O=C(O)CCCCCCC(=O)c1ccccc1", "melting point": 81}, {"smiles": "COc1c(OC)c(OC(C)=O)c2cc(Br)ccc2c1OC(C)=O", "melting point": 102}, {"smiles": "COc1cc(O)c(C(=O)c2ccccc2)cc1S(=O)(=O)O", "melting point": 170}, {"smiles": "ON=Cc1cccc(Br)c1", "melting point": 72}, {"smiles": "COc1c(C(=O)Cl)csc1Br", "melting point": "79 to 82"}, {"smiles": "NNC(=O)C(N)=O", "melting point": "216 to 218"}, {"smiles": "CC1=C(O)C(=O)CC(C)(C)C1", "melting point": 89}, {"smiles": "O=c1[nH]cc(Br)c(=O)[nH]1", "melting point": 310}, {"smiles": "CC(=O)OCC1(C)CCCC23COC4CC5C(C)C(=O)C6(C(CC12)OC(C)(C)OC56)C43", "note": "(centres undefined)", "melting point": 156}, {"smiles": "Brc1cccc(-c2cnco2)c1", "melting point": "59 to 61"}, {"smiles": "N#Cc1ccc(OC(F)F)cc1", "melting point": "40 to 42"}, {"smiles": "O=S(=O)(Cl)c1c(Cl)ccc2nonc12", "melting point": "73 to 75"}, {"smiles": "CCOC(=O)Oc1c(-c2ccccc2)n(C(C)=O)c2cc([N+](=O)[O-])ccc12", "melting point": 133}, {"smiles": "O=C(O)COc1ccc(Br)cc1", "melting point": "156 to 161"}, {"smiles": "COc1c(C)c2c(c(O)c1CC=C(C)CCC(=O)O)C(=O)OC2", "melting point": 141}, {"smiles": "O=C(O)c1ccccc1Cn1cncn1", "melting point": "206 to 207"}, {"smiles": "C=CCC1=C(O)C2=CC=C3C(C)=C(C)C(=O)CC3(C)C2=C(O)C1=O", "note": "(centres undefined)", "melting point": 171}, {"smiles": "Cc1ccc(Br)cc1Br", "melting point": -9.7}, {"smiles": "CCN1CCCC1CNC(=O)c1cc(S(=O)(=O)CC)ccc1OC", "note": "(centres undefined)", "melting point": 182}, {"smiles": "Clc1cccc2cc3c(Cl)cccc3cc12", "melting point": 189}, {"smiles": "C(=NC(N=Cc1ccco1)c1ccco1)c1ccco1", "note": "(centres undefined)", "melting point": 117}, {"smiles": "CCOC(=O)c1cc(-c2ccco2)nn1C", "melting point": "57 to 58"}, {"smiles": "COc1ccc(C=CC(=O)Nc2ccccc2C(=O)O)cc1OC", "melting point": 212}, {"smiles": "O=[N+]([O-])c1ccc(O)c2ncccc12", "melting point": 180}, {"smiles": "Cn1c(CO)cc2sccc21", "melting point": "103 to 104"}, {"smiles": "O=C(Cl)c1cccc2ccccc12", "melting point": 26}, {"smiles": "O=S(=O)(Cl)c1ccc(S(=O)(=O)N2CCOCC2)cc1", "melting point": "150 to 152"}, {"smiles": "O=C(O)Cc1cccc(CC(=O)O)c1", "melting point": 175}, {"smiles": "CC(=O)NCCCCC(N)C(=O)O", "note": "(centres undefined)", "melting point": 250}, {"smiles": "CCC(=O)c1cc(C)ccc1O", "melting point": 2}, {"smiles": "O=C(O)Cc1cccc(Oc2ccccc2)c1", "melting point": 89}, {"smiles": "CCCCC1=NC2(CCCC2)C(=O)N1Cc1ccc(-c2ccccc2-c2nnn[nH]2)cc1", "melting point": 180}, {"smiles": "CCCCC(=O)OCCC", "melting point": -70.7}, {"smiles": "CCOC(=O)C1=C(C)NC(=O)NC1c1ccc([N+](=O)[O-])cc1", "note": "(centres undefined)", "melting point": 208}, {"smiles": "COc1cccc(OCC(=O)O)c1", "melting point": 118}, {"smiles": "CC1=CCC(C)C1=NNc1ccc([N+](=O)[O-])cc1[N+](=O)[O-]", "note": "(centres undefined)", "melting point": 198}, {"smiles": "CSc1nc(N)c(C#N)s1", "melting point": "207 to 210"}, {"smiles": "COc1cc2c(cc1OC)C(=O)NCC2", "melting point": 175}, {"smiles": "CNNC", "melting point": -9}, {"smiles": "Nc1ccccc1N1CCOCC1", "melting point": "98 to 99"}, {"smiles": "O=C(O)C(F)c1ccccc1", "note": "(centres undefined)", "melting point": "82 to 85"}, {"smiles": "Cn1nc(-c2ccccc2)cc1N", "melting point": "132 to 135"}, {"smiles": "Fc1cccc(F)c1", "melting point": -59}, {"smiles": "CS(=O)(=O)CCCN=C=S", "melting point": 47.5}, {"smiles": "CC(C)=CCCC(C)=CCO", "melting point": 50}, {"smiles": "Nc1c(Cl)cc(C(=O)O)cc1Cl", "melting point": 292}, {"smiles": "S=c1[nH]ccn1-c1cccc(Cl)c1", "melting point": "161 to 163"}]}]}
